US8871753B2, “Macrocyclic compounds and their use as kinase inhibitors” (Incyte Corporation, priority 2008, dated 2014)
Where a name gives a salt, the structure may show the parent alone.

Key:
Type in all cases: biochemical
[1] = biological target: T1, human JAK2 (a.a. 828-1132) (Homo sapiens, UniProt O60674); experiment: In vitro JAK kinase assay (HTRF, phosphorylation of a biotinylated peptide), JAK2; settings: Table B1
T1 construct: JAK2 (a.a. 828-1132); His tag (N); made in house; host or cells: insect cells (baculovirus)
T1 sequence (O60674 828-1132): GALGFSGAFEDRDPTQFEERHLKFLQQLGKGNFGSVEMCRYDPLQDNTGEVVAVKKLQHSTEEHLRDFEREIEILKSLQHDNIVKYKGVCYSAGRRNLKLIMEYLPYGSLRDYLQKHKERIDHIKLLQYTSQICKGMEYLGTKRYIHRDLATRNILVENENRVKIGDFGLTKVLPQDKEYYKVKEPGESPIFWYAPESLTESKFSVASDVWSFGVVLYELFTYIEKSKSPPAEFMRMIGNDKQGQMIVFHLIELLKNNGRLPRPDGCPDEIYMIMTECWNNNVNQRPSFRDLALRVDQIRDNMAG
In short: (§1)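 Phosphorylation of a biotinylated peptide by the JAK kinase domain, detected by HTRF with Eu-Py20 and SA-APC. ATP was 90 μM for JAK1, 30 μM for JAK2 and 3 μM for JAK3. Reactions ran 1 h at room temperature and were stopped with EDTA, followed by 40 min antibody binding.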

[2] = biological target: T2, human JAK1 (a.a. 837-1142) (Homo sapiens, UniProt P23458); experiment: In vitro JAK kinase assay (HTRF, phosphorylation of a biotinylated peptide), JAK1; settings: Table B1; read-out: JAK1 IC50
T2 construct: human JAK1 (a.a. 837-1142); His tag (N); made in house; host or cells: insect cells (baculovirus)
T2 sequence (P23458 849-1154): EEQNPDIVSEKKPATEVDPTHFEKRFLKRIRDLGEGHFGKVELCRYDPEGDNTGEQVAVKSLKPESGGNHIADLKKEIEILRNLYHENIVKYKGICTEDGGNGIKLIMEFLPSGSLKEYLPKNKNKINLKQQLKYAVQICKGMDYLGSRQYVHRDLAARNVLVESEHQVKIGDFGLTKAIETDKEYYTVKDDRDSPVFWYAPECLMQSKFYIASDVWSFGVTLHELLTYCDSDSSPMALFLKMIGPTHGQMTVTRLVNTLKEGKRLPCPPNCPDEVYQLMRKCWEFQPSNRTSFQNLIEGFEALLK
In short: as §1

[3] = biological target: T3, human JAK3 (a.a. 781-1124) (Homo sapiens, UniProt P52333); experiment: In vitro JAK kinase assay (HTRF, phosphorylation of a biotinylated peptide), JAK3; settings: Table B1
T3 construct: JAK3 (a.a. 781-1124); His tag (N); made in house; host or cells: insect cells (baculovirus)
T3 sequence (P52333 781-1124): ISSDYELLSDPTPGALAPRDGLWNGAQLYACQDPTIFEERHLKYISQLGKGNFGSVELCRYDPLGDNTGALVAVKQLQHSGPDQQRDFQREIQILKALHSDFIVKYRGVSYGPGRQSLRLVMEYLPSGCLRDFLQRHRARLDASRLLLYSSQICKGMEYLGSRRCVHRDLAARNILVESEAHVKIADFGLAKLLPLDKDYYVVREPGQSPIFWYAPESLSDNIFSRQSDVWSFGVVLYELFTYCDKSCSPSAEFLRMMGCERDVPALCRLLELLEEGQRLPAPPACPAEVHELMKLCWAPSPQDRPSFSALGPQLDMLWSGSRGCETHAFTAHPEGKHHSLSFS
In short: as §1

TYK2 = TYK2 (Homo sapiens, UniProt P29597); experiment: TYK2 kinase inhibition (Table A1); settings: Table B1
Sequence of TYK2 (P29597 whole entry): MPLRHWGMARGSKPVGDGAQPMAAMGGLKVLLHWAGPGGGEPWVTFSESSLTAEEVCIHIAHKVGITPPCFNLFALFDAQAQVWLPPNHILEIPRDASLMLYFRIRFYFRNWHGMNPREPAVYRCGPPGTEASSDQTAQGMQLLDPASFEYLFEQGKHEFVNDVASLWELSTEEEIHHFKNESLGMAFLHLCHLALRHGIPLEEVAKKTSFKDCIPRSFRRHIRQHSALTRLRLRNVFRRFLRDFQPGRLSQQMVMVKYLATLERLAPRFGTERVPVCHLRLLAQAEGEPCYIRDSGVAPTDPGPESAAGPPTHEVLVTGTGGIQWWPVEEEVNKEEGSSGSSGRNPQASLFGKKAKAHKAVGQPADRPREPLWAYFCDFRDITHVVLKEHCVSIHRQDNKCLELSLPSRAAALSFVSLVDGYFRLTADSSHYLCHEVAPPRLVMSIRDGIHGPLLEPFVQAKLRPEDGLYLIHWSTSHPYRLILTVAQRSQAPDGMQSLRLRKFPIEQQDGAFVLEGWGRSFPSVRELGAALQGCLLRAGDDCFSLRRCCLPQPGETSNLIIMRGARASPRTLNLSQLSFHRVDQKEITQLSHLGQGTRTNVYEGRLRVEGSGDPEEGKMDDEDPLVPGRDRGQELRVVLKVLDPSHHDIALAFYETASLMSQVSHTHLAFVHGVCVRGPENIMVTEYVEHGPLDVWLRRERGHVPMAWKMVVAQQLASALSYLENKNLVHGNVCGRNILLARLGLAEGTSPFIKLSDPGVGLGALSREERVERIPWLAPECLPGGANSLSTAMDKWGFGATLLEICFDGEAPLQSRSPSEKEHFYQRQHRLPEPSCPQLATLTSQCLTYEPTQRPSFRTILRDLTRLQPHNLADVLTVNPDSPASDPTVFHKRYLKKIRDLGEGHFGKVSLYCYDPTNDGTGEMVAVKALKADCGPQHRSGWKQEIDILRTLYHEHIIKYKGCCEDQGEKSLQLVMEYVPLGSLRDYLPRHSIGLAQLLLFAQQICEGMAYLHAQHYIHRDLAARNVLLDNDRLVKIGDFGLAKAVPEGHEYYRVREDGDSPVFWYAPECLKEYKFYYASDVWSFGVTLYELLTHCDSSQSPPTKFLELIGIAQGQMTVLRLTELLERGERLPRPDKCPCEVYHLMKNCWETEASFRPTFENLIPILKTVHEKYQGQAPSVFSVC

[4] = biological target: T4, Recombinant Human Anaplastic Lymphoma Kinase (Homo sapiens, UniProt Q9UM73); experiment: ALK HTRF kinase assay; settings: compound at a concentration of 500 nM or 1 mM (not specified); cells shown as percentage
T4 construct: purchased Invitrogen, Carlsbad, Calif
T4 sequence (Q9UM73 19-1620): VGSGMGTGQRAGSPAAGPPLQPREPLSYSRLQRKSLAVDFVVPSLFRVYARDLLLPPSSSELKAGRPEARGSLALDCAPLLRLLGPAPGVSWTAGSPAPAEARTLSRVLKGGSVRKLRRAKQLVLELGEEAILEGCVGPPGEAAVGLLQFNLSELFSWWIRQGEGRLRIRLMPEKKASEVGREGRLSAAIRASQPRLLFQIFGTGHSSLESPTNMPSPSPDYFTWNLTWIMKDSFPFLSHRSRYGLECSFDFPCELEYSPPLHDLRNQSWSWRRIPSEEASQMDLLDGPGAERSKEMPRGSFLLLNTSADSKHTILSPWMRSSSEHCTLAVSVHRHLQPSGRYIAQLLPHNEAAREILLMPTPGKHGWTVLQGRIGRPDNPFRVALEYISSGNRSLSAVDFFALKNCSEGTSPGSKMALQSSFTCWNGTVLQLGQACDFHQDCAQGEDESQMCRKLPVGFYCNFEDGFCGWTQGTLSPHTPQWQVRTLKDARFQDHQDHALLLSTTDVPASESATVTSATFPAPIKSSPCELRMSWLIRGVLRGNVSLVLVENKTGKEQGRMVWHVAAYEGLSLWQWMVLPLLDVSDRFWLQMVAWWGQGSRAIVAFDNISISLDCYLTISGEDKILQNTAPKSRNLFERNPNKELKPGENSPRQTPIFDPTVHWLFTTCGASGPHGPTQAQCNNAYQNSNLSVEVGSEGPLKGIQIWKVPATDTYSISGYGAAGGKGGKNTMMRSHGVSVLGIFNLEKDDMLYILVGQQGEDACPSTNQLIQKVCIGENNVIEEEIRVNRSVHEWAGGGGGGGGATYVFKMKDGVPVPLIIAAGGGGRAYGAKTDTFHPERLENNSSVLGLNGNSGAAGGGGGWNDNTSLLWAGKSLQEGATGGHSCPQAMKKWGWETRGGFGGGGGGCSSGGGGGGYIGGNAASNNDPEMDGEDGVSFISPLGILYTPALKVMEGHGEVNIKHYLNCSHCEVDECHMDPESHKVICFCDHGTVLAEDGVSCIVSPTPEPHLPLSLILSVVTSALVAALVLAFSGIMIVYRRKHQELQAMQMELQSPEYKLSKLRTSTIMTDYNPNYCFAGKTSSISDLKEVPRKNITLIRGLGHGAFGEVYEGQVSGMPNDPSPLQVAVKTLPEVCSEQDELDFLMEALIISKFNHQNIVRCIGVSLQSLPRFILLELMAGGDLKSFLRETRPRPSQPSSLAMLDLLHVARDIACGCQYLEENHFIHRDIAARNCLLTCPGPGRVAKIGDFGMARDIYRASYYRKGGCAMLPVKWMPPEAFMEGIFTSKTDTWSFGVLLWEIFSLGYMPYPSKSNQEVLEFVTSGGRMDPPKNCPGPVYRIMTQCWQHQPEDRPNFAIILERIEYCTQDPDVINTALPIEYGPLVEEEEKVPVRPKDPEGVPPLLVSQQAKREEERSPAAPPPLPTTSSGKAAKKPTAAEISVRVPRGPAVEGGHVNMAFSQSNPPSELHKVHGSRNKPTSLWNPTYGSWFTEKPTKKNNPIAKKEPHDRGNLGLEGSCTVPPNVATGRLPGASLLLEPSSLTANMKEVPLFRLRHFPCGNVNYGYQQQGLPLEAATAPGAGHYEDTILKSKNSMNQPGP
In short: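 Recombinant human ALK phosphorylated a biotinylated synthetic peptide. Phosphotyrosine was detected by TR-FRET between a Eu-labelled anti-phosphotyrosine antibody and streptavidin-allophycocyanin. IC50 values came from fitting signal against inhibitor concentration to a four-parameter logistic equation with variable Hill slope.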

| IC50 [1] | IC50 [2] | IC50 [3] | IC50 (TYK2) | ALK % of inhibition at a concentration of 500 nM or 1 mM [4] | SMILES |
| --- | --- | --- | --- | --- | --- |
| 31 nM | 9 nM | 124 nM | 46 nM | 49% | O=C(Nc1ccc2c(c1)CCC2)Nc1ccc2cc1CCc1cccc(c1)Nc1ncc(Cl)c(n1)N2 [Example B103, N-[6-Chloro-2,4,8,22-tetraazatetracyclo[14.3.1.1(3,7).1(9,13)]docosa-1(20), 3(22),4,6,9(21),10,12,16,18-nonaen-12-yl]-N′-(2,3-dihydro-1H-inden-5-yl)urea trifluoroacetate] |
| 11 nM | 4.9 nM | 81 nM | 26 nM | 55% | CC(C)c1ccccc1NC(=O)Nc1ccc2cc1CCc1cccc(c1)Nc1ncc(Cl)c(n1)N2 [Example B104, N-[6-Chloro-2,4,8,22-tetraazatetracyclo[14.3.1.1(3,7).1(9,13)]docosa-1(20), 3(22),4,6,9(21),10,12,16,18-nonaen-12-yl]-N′-(2-isopropylphenyl)urea trifluoroacetate] |
| 10 nM | 3.9 nM | 43 nM | 13 nM | 52% | CCCc1ccccc1NC(=O)Nc1ccc2cc1CCc1cccc(c1)Nc1ncc(Cl)c(n1)N2 [Example B105, N-[6-Chloro-2,4,8,22-tetraazatetracyclo[14.3.1.1(3,7).1(9,13)]docosa-1(20), 3(22),4,6,9(21),10,12,16,18-nonaen-12-yl]-N′-(2-propylphenyl)urea trifluoroacetate] |
| 9.6 nM | 4.3 nM | 90 nM | 18 nM | 5.7% | CCOc1ccccc1NC(=O)Nc1ccc2cc1CCc1cccc(c1)Nc1ncc(Cl)c(n1)N2 [Example B106, N-[6-Chloro-2,4,8,22-tetraazatetracyclo[14.3.1.1(3,7).1(9,13)]docosa-1(20), 3(22),4,6,9(21),10,12,16,18-nonaen-12-yl]-N′-(2-ethoxyphenyl)urea trifluoroacetate] |
| 2.3 nM | 0.62 nM | 16 nM | 6.8 nM | 9.3% | CSc1ccccc1NC(=O)Nc1ccc2cc1CCc1cccc(c1)Nc1ncc(Cl)c(n1)N2 [Example B107, N-[6-Chloro-2,4,8,22-tetraazatetracyclo[14.3.1.1(3,7).1(9,13)]docosa-1(20), 3(22),4,6,9(21),10,12,16,18-nonaen-12-yl]-N′-[2-(methylthio)phenyl]urea trifluoroacetate] |
| 4.6 nM | 1.6 nM | 23 nM | 2.1 nM | 21% | O=C(Nc1ccccc1CCl)Nc1ccc2cc1CCc1cccc(c1)Nc1ncc(Cl)c(n1)N2 [Example B108, N-[2-(Chloromethyl)phenyl]-N′-[6-chloro-2,4,8,22-tetraazatetracyclo[14.3.1.1(3,7).1(9,13)]docosa-1(20),3(22),4,6,9(21),10,12,16,18-nonaen-12-yl]urea trifluoroacetate] |
| 56 nM | 9.6 nM | 261 nM | 72 nM | 0% | O=C(Nc1ccc2cc1CCc1cccc(c1)Nc1ncc(Cl)c(n1)N2)Nc1cccc2c1CCCC2 [Example B109, N-[6-Chloro-2,4,8,22-tetraazatetracyclo[14.3.1.1(3,7).1(9,13)]docosa-1(20),3(22),4,6,9(21),10,12,16,18-nonaen-12-yl]-N′-(5,6,7,8-tetrahydronaphthalen-1-yl)urea trifluoroacetate] |
| 5.2 nM | 4.3 nM | 92 nM | 15 nM | 7.1% | CC(C)(C)c1ccccc1NC(=O)Nc1ccc2cc1CCc1cccc(c1)Nc1ncc(Cl)c(n1)N2 [Example B110, N-(2-tert-Butylphenyl)-N′-[6-chloro-2,4,8,22-tetraazatetracyclo[14.3.1.1(3,7).1(9,13)]docosa-1(20),3(22),4,6,9(21),10,12,16,18-nonaen-12-yl]urea trifluoroacetate] |
